Tested on: MDA-MB-231 cells
Assay: 1H NMR metabolomics of polar (aqueous) cell extracts
Type: cell-based, human
Procedure: MDA-MB-231 and MCF-10A cells were seeded in 10-cm-diameter Petri dishes at a density of 6 × 10^5 cells/mL (10 mL per dish) and cultured for 24 h at 37 °C. […] Vehicle solvent control cells received DMSO (0.10% v/v). Samples were collected immediately after 48 h incubation or, to assess cellular recovery, medium was replaced with fresh growth medium (without TAs), and cells were incubated for additional 24 h before collection (48 + 24 h samples). Four independent assays were performed.
After incubation, culture medium was collected and centrifuged (1000× g, 5 min) and the supernatant stored at −80 °C until analysis. Culture medium without cells was placed under the same conditions and collected. Cell extraction was performed as described by Carrola et al.. Briefly, cells were washed four times with PBS and extracted with a mixture of methanol:chloroform:water (1:1:0.7). The resulting polar and organic phases were collected and then dried under vacuum or under a stream of nitrogen gas, respectively. All samples were stored at −80 °C and, at the time of analysis, dried polar extracts were reconstituted in 600 µL of deuterated phosphate buffer (100 mM, pH 7.4) containing 0.1 mM TSP-d4, while organic extracts were reconstituted in deuterated chloroform containing 0.03% TMS. Regarding medium samples, 540 μL were mixed with 60 μL of D2O containing 0.25% TSP-d4. Prior to analysis, 550 μL of each sample were transferred to 5 mm NMR tubes.
^1H NMR spectra of all samples were acquired on a Bruker Avance III HD 500 NMR spectrometer (University of Aveiro, Portuguese NMR Network) operating at 500.13 MHz for ^1H observation equipped with a 5 mm TXI probe. Standard 1D spectra (Bruker pulse programs ‘noesypr1d’, with water suppression, for medium samples and aqueous extracts, and ‘zg’ for organic extracts) were recorded with a 7002.8 Hz spectral width, 32 k data points, a 2 s relaxation delay and 512 scans. Spectral processing comprised exponential multiplication with 0.3 Hz line broadening, zero filling to 64 k data points, manual phasing, baseline correction, and chemical shift calibration to the TSP or TMS signal at 0 ppm. 2D ^1H-^1H total correlation (TOCSY) spectra, ^1H-^13C heteronuclear single quantum correlation (HSQC) spectra and J-resolved spectra were also registered for selected samples to assist spectral assignment. Metabolites were identified with the support of 2D spectra and the spectral reference databases BBIOREFCODE-2-0-0 (Bruker Biospin, Rheinstetten, Germany) and HMDB [28]. Selected signals were then integrated using the AmixViewer software […] (version 3.9.14, Bruker BioSpin, Rheinstetten, Germany) and normalized by the total spectral area. The magnitude of each metabolite change was assessed through the percentage of variation (and its respective error) in exposed samples relatively to controls, and through the effect size (ES) adjusted for small sample numbers (and respective standard error). Metabolite variations with absolute ES greater than 0.8 were expressed in a heatmap, colored as a function of the percentage of variation, employing the R statistical software.

## C=C(C)[C@@H]1CC[C@]2(C(=O)O)CC[C@]3(C)[C@H](CC[C@@H]4[C@@]5(C)CC[C@H](O)C(C)(C)[C@@H]5CC[C@]43C)[C@@H]12 [BA, betulinic acid]
BA 5µM, 48h
  ATP %var: 0%
  Acetate %var: 0%
  Ala %var: -12.64%
  Asp %var: -30.52%
  Choline %var: 10.16%
  Citrate %var: -40.97%
  Cr %var: 22.45%
  Fumarate %var: -35.42%
  GPC %var: 13.50%
  GSH %var: -15.77%
  Gln %var: -28.49%
  Glu %var: -24.61%
  Gly %var: 0%
  Ile %var: 14.68%
  Lactate %var: 53.08%
  Leu %var: 15.91%
  PC %var: -24.96%
  PCr %var: -19.36%
  Phe %var: 6.80%
  Pro %var: 16.73%
  Tau %var: 6.09%
  Tyr %var: 8.11%
  Val %var: 18.46%
  myo-Ino %var: -8.23%
BA 5µM, 48h+24h
  ATP %var: -7.54%
  Acetate %var: 0%
  Ala %var: -7.44%
  Asp %var: 0%
  Choline %var: 0%
  Citrate %var: -12.45%
  Cr %var: 0%
  Fumarate %var: 0%
  GPC %var: 0%
  GSH %var: 0%
  Gln %var: 0%
  Glu %var: 0%
  Gly %var: -8.57%
  Ile %var: 0%
  Lactate %var: 0%
  Leu %var: 0%
  PC %var: 0%
  PCr %var: 0%
  Phe %var: 0%
  Pro %var: 0%
  Tau %var: 0%
  Tyr %var: 0%
  Val %var: 0%
  myo-Ino %var: -6.52%
BA 15µM, 48h
  ATP %var: 0%
  Acetate %var: 21.07%
  Ala %var: -10.34%
  Asp %var: -12.45%
  Choline %var: 12.46%
  Citrate %var: -51.74%
  Cr %var: 18.99%
  Fumarate %var: -37.50%
  GPC %var: 26.27%
  GSH %var: -25.87%
  Gln %var: -20.94%
  Glu %var: -37.41%
  Gly %var: -9.59%
  Ile %var: 30.97%
  Lactate %var: 55.73%
  Leu %var: 33.86%
  PC %var: -38.62%
  PCr %var: -22.44%
  Phe %var: 24.06%
  Pro %var: 21.93%
  Tau %var: 7.79%
  Tyr %var: 28.53%
  Val %var: 38.79%
  myo-Ino %var: -18.58%
  number of intracellular polar metabolites consistently altered: 23
BA 15µM, 48h+24h
  ATP %var: -15.36%
  Acetate %var: 22.70%
  Ala %var: -12.62%
  Asp %var: 0%
  Choline %var: 0%
  Citrate %var: -19.78%
  Cr %var: 0%
  Fumarate %var: 0%
  GPC %var: 0%
  GSH %var: 0%
  Gln %var: -5.26%
  Glu %var: -11.90%
  Gly %var: -31.75%
  Ile %var: 0%
  Lactate %var: 0%
  Leu %var: 0%
  PC %var: 0%
  PCr %var: -14.19%
  Phe %var: 0%
  Pro %var: 0%
  Tau %var: 0%
  Tyr %var: 0%
  Val %var: 0%
  myo-Ino %var: -17.84%
